Test results reported in PMC11503492, “Activity-Based DNA-Encoded Library Screening for Selective Inhibitors of Eukaryotic Translation” (ACS Central Science, 2024).

Key:
[1] = system: PCSK9[1:33]-GFP translation; assay: Wheat germ lysate (WG) IVTT microplate activity assay, PCSK9[1:33]-GFP template; type: biochemical; details: WG IVTT; for IC50: PCSK9[1:33]-GFP template, triplicate, ± standard deviation of the mean
Text: (§1) A commercially available wheat germ lysate (WG) IVTT system was employed to assay translation inhibition. Translation activity was detected via a GFP reporter, and the assay was miniaturized to picoliter-scale microfluidic droplets (Figure 1A,B). […] PCSK9 and RPL27 were truncated to the first 33 and 32 amino acids, respectively (PCSK9[1:33] and RPL27[1:32]). The sequences contain distinct PF846 stall sites and were both fused to a GFP reporter. The GFP reporter and a frameshift mutant of PCSK9[1:33] (PCSK9-FS[1:33]), which mutates the nascent chain sequence while maintaining a nearly identical mRNA sequence, were included as negative controls.[13] […] Sequence sensitivity was further confirmed by an N-terminal deletion series of PCSK9[1:33]-GFP; deletion of N-terminal residues increasingly ablated PCSK9[1:33]-GFP translation sensitivity to PF846 (Figure 1D). The WG IVTT assay was miniaturized using a previously described microfluidic circuit modified for longer incubation times (Figure S1)[27] using PF846 as a positive control compound, and assay statistical quality was calculated (Z′=0.7) (Figure 1E). To confirm detection of translation inhibition from library beads, hygromycin B, a nonselective aminoglycoside translation inhibitor, was coupled to beads displaying a photocleavable linker (PC-HygB). UV irradiation releases hygromycin from the bead, allowing it to interact with the WG IVTT assay in the droplet. PC-HygB bead photocleavage supernatant inhibited PCSK9[1:33]-GFP translation both in a microplate assay and in microfluidic droplets (Figure 1F,G, S2). Assay statistical quality using PC-HygB positive control beads was similarly calculated (Z′ = 0.75, Figure 1H). […]
(§2) 436 Microplate IVTT Assays
(§3) 437 Wheat germ lysate IVTT plate assays were prepared as 5 µL reactions. Wheat germ lysate
(§4) 438 (3 µL) was added to test compound or vehicle control (1 µL) in a 384-well black microplate
(§5) 439 and the reaction was incubated (10 min, RT). Template (1 µL) was added and reaction
(§6) 440 progress was immediately monitored (λex = 480 nm, λem = 530 nm, 27 °C, 2 h). Rela-
(§7) 441 tive activity was calculated using the slope of fluorescence increase over time (at 15–30
(§8) 442 min post reaction initiation) for compound samples relative to that of the DMSO vehicle
443 control. […]

[2] = system: PCSK9-FS[1:33]-GFP translation; assay: Microfluidic activity-based DEL counter screen in WG IVTT droplets, PCSK9-FS[1:33]-GFP, hit k class by sequencing; type: biochemical, wheat germ; details: number of times hit structure observed on distinct beads, summed across PCSK9-FS[1:33]-GFP screens; *** p < 0.001, NS not significant
Description: (§9) The validated PF846-inspired library was screened to discover novel translation inhibitors. DEL beads were encapsulated in microfluidic droplets of WG IVTT and irradiated with UV in flow to liberate DEL members into the droplets. The photodosed droplets were incubated and sorted based on fluorescence.[25] PCSK9[1:33]-GFP was chosen as a proof-of-concept target, and PCSK9-FS[1:33]-GFP was used as a counter screen target to identify nonselective compounds. PC-HygB were mixed with DEL beads and screened in the microfluidic device for inhibitors of translation. […] Droplet generation, bead introduction, and library and control bead hit rate were uniform during the screen (Figure 3, bottom).
(§10) Hit collection DNA tags from the PCSK9[1:33]-GFP and PCSK9-FS[1:33]-GFP screens were sequenced to deduce the structures of molecules that inhibited PCSK9[1:33]- or PCSK9-FS[1:33]-GFP translation. Hit structure k class, the number of times a given hit structure is observed on distinct beads,[31] was summed across screens and visualized as a heat map (Figure 4A). […] The combined hit sets for the two templates contained 121 unique hits with k ≥ 17 across the two screening campaigns. The most frequently observed cycle 1 starter BBs were 1 and 2, which share an 8-methylisoquinoline moiety, but differ in the vector for cycle 2 carboxylic acid connection, and 3, which contains an N-methylazaindole moiety. The most frequently identified cycle 2 tails included carboxylic acids 4–7. […] Substituted pyrazole 6 and pyridyl-benzimidazole 7 also appeared frequently with the aforementioned starters. There were 5 hits that appeared with high k class in both PCSK9[1:33]-GFP and PCSK9[1:33]-FS-GFP screening campaigns.
(§11) 319 the droplet experiment to homogenize the bead suspension. Syringes were connected to
(§12) 320 fluidic inputs with microbore Tygon tubing (0.01” x 0.03” IC × OD). Droplet generation oil
(§13) 321 (OIL1) was 1% picosurf in HFE. Spacing (OIL2) and pinning (OIL3) oils were neat HFE.
(§14) 322 Assay reagents were driven by displacement syringe pumps (Legato 100, KD Scientific,
(§15) 323 Holliston, MA) through the circuit. OIL2 and OIL3 were initially flowed (22 µL/min and
(§16) 324 12 µL/min, respectively) and hit and waste shunt tubing were clamped to backfill the
(§17) 325 circuit. Once the incubator was filled with oil, the hit and waste tubing were unclamped
(§18) 326 and back shunts were clamped. AQ1, AQ2, and OIL1 flows were initiated (960 nL/min,
(§19) 327 640 nL/min, and 1200 nL/min, respectively) and held constant during the screen. Once
(§20) 328 droplet generation equilibrated (∼10 min), the main shunt was clamped and droplets
(§21) 329 started to fill the incubator. When droplets filled the incubator and entered the sorting
(§22) 330 region, data acquisition and screening was initiated.
(§23) 331 The custom confocal LIF detection setup and LabView code were previously described.S3
(§24) 332 Briefly, photon counting PMTs (H7828, Hamamatsu, Middlesex, NJ) were used to detect
(§25) 333 droplet fluorescence emission using a custom two-channel (520 and 570 nm) confocal mi-
(§26) 334 croscope with laser excitation (488 nm, 20 mW, OBIS-488 20LS, Coherent Inc., Santa Clara,
(§27) 335 CA). A data acquisition board (DAQ, NI, USB-6341, National Instruments) was used to
(§28) 336 digitize PMT signal, which was binned into counts, and in-house LabView code was used
(§29) 337 to control acquisition and execute droplet sorting decisions. Signal was smoothed in real-
(§30) 338 time using median-filter smoothing (width = 3). Droplets were identified by the 570 nm
(§31) 339 channel signal and the maximum signal in the 520 nm channel (max = countsn-1 when
(§32) 340 countsn <countsn-1) was set as the droplet peak value. A roaming sort threshold was
(§33) 342 the 520 nm channel. The threshold was calculated as µ - 5σ, where µ andσ were the mean
(§34) 343 and standard deviation of the previous 300 droplets’ fluorescence values, respectively. Hit
(§35) 344 droplets were not included in the calculation of droplet mean and standard deviation. A […]

[3] = system: PCSK9[1:33]-GFP translation; assay: Microfluidic activity-based DEL screen in WG IVTT droplets, PCSK9[1:33]-GFP, hit k class by sequencing; type: biochemical, wheat germ; details: number of times hit structure observed on distinct beads, summed across PCSK9[1:33]-GFP screens; *** p < 0.001, NS not significant
Description: as §9, §10, §11, §12, §13, §14, §15, §16, §17, §18, §19, §20, §21, §22, §23, §24, §25, §26, §27, §28, §29, §30, §31, §32, §33, §34, §35

[4] = system: PCSK9-FS[1:33]-GFP translation; assay: WG IVTT microplate activity assay, PCSK9-FS[1:33]-GFP frameshift counter template; type: biochemical, wheat germ; details: for IC50: PCSK9-FS[1:33]-GFP template, triplicate, undetectable IC50 marked >300; for activity on PCSK9-FS[1:33]-GFP translation (in words): frameshift control
Text: as §1, §2, §3, §4, §5, §6, §7, §8
443 control. All microplate experiments contained 25 ng/µL plasmid, except for assays with
445 respectively. HeLa lysate IVTT plate assays were prepared as 5.5 µL reactions. […]

SMILES	inhibition of PCSK9[1:33]-GFP translation (in words) [1]	IC50 [1]	k class PCSK9-FS [2]	k class PCSK9 [3]	IC50 [4]	activity on PCSK9-FS[1:33]-GFP translation (in words) [4]
Cc1cccc2ccnc(N(C(=O)C3CCN(C(=O)c4ccc5nc(-c6ccncc6)[nH]c5c4)CC3)[C@@H]3CCCNC3)c12 [Compound 14]	similarly active on both templates	11.4 ± 0.4 µM	17	53	7.7 ± 0.1 µM	similarly active on both templates
Cc1cccc2ccnc(N(C(=O)C3CCN(C(=O)C#CC4(O)CCOCC4)CC3)[C@@H]3CCCNC3)c12 [Compound 12]	similarly active on both templates	44 ± 4 µM	3	31	27 ± 2 µM	similarly active on both templates
Cc1cccc2ccnc(N(C(=O)[C@H]3CCCN(C(=O)c4ccc(-c5cnco5)cc4)C3)[C@@H]3CCCNC3)c12 [Compound 10, (S)-N-(8-methylisoquinolin-1-yl)-1-(4-(oxazol-5-yl)benzoyl)-N-((R)-piperidin-3-yl)piperidine-3-carboxamide]	modestly inhibited	6 ± 0.2 µM	3	34	> 300 µM	minimal activity
Cc1c(C(=O)N2CCC(C(=O)N(c3nccc4cccc(C)c34)[C@@H]3CCCNC3)CC2)[nH]c2c1C(=O)CCC2 [Compound 11]	similarly active on both templates	19.1 ± 0.5 µM	10	38	31 ± 1 µM	similarly active on both templates
Cc1cccc2ccnc(N(C(=O)[C@H]3CCCN(C(=O)c4ccc(N5CCCC5)nc4)C3)[C@@H]3CCCNC3)c12 [Compound 13]	modestly inhibited	11.2 ± 0.5 µM	4	39	> 300 µM	minimal activity
